Results as given in patent US20060166934A1, “Composition comprising phytosphingosine derivatives for apoptosis induction” (Tae-Yoon Kim, priority 2002, published 2006).

Legend:
[1] = system: human umbilical vein endothelial cells (HUVEC); experiment: MTT assay, cytotoxicity in HUVEC; type: cell-based; conditions: for Cell viability: HUVEC, con = 100, in %
Method: Firstly, the cytotoxicity is measured by the MTT assay. Phytosphingosine (PS), phytosphingosine-HCl (PS-HCl), C6-phytosphingosine (C6-PS), CLA-phytosphingosine (CLA-PS), tetraacetyl phytosphingosine (TAPS), and N-acetyl phytosphingosine (NAPS) are dissolved into DMSO to have the final concentration of 1-100 μM.
In order to study the effects of the compositions of the present invention on the cytotoxicity in the human keratinocyte cell line HaCaT cells, the cell viability is analyzed by the MTT (3-[4,5-dimethylthiazol-2-yl]-2,5-diphenyltetrazolium bromide) assay. HaCaT cells are supplied by Professor N. Fuseng of German Cancer Research in Germany. HaCaT cells are seeded in a density of 1×10^6 cells in a […] and cultured in DMEM (Dulbecco's Modified Eagle Medium) containing 10% fetal bovine serum (FBS, GIBCO), 100 units/ml penicillin, and 100 μg/ml streptomycin for 48 hours. They are treated with trypsin and 1-2×10^4 cells per well are seeded again in a 96-well plate by using a serum-free culture medium, about 3 hours after which they are cultured by treatment with phytosphingosine derivatives. After they are cultured for 24 hours, the MTT reagent is added at a concentration of 2 mg/ml, cultured for 4 hours, suspended in DMSO after removing the culture medium completely in order to measure O.D. at 540 nm. C2-ceramide is used for comparison.
The MTT assay is used for the above purpose. Primary human umbilical vein endothelial cells are cultured from the human umbilical vein. The method of cell culture and the MTT assay are the same as those in the above. C2-ceramide is used for comparison.

HaCaT cells [2] = experiment: TUNEL assay, induction of apoptosis; type: cell-based, human; conditions: for cell death (TUNEL): 10 μM and 30 μM, 24 hours, FIG. 6; for time after treating at which apoptosis is induced: 30 μM, FIG. 7
Method: Induction of apoptosis of HaCaT cells by the compositions of the present invention is observed in the TUNEL-TdT-mediated dUTP nick end labeling-assay by using in situ cell death detection kit, POD (Enzo, 1684817, Boeringer Mannhein).
In the TC chamber (Lab-TEK chamber Slide w/cover Permanox Slide sterile 1 well, 177410), 1×10^6 HaCaT cells are seeded and cultured on the DMEM medium for longer than 18 hours and treated with phytosphingosine derivatives. The cells are fixed 24 hours after treating with drugs, and the endogenous peroxidase is blocked with a blocking solution (3% H2O2 in MeOH), and permeation of cells is increased by using a permeabilization solution (0.1% Triton X-100 in 0.1% sodium citrate). Then apoptotic cells are labeled by using the mixture of tunnel reaction and are colored by using the DAB substrate (DAKO, K3465). Colored cells are observed by using a microscope.

[3] = system: HaCaT cells human keratinocyte cell line; experiment: MTT assay, combined administration with Vit D3 or calcipotriol; type: cell-based
Method: In order to study the synergistic effect in the cytotoxicity when the compositions of the present invention are administered in combination with Vit D3 or calcipotriol, the cell viability is analyzed by MTT assay method in HaCaT cells human keratinocyte cell line.
To HaCaT cells, 1 μM of Vit D3 or calcipotriol, or 10 μM each of NAPS and TAPS, is administered singly or in combination with each other, and they are cultured for 24 hours. And the effects of these drugs on the cytotoxicity according to the single or combined administration are observed by MTT assay. C2-ceramide is used for comparison.

HaCaT cells [4] = experiment: MTT assay, combined treatment with UVB irradiation; type: cell-based, human; set-up: Cell viability: unit not given here; conditions: for cytotoxicity: 10 μM only; for Cell viability: HaCaT
Method: In order to study the synergistic effect in the cytotoxicity by the cotreatment with administration of the compositions of the present invention and with UVB irradiation, the cell viability is analyzed by MTT assay method in HaCaT cells. On a 100-mm dish, 1×10^6 HaCaT cells are seeded and cultured in DMEM containing 10% fetal bovine serum, 100 units/ml penicillin, and 100 μg/ml streptomycin for 48 hours. They are treated with trypsin, and 1-2×10^4 cells per well are seeded on a 96-well plate again by using a serum-free medium, which is removed after about 3 hours. HaCaT cells are washed with PBS three times, and 3.5 ml of PBS per plate is added. It is then irradiated with 200 J/m^2 of UVB. After irradiation, the medium is replaced with a DMEM medium. Then it is treated with the phytosphingosine derivatives of the present invention, and cultured for 24 hours. After 2 mg/ml of the MTT reagent is added, it is cultured for 4 hours. The medium is removed completely, the cells are suspended in DMSO, and O.D. is measured at 540 nm.

caspase-3 = experiment: Immunoblot analysis of active caspase-3; type: cell-based, human; conditions: HaCaT, FIG. 11; for time to maximum active caspase-3: after treatment; for maximum increase of active caspase-3 (expression of induction): immunoblot
Method: In the confirmation of apoptosis-related proteins, the immunoblot analysis is performed in order to look into the effects of the compositions of the present invention on the expression of caspase-3, p53, and Chk1 proteins related to the induction of apoptosis.
HaCaT cells are cultured on a 100-mm dish and collected at the indicative time. The proteins are extracted by adding 500 μl of RIPA lysis buffer (1% Nonidet P-40, 1% sodium deoxycholate, 0.1% SDS, […], 0.01 M sodium phosphate, pH 7.2, 2 mM EDTA, 50 mM sodium fluoride and 0.2 mM sodium vanadate), and the concentration is measured by using the Bradford method. 1
Extracted proteins is electrophoresed on 12% polyacrylamide gel, and they are transferred to the nitrocellulose membrane. The membrane blocked with 5% non-fat milk is reacted with the primary antibodies (caspase-3, p53, and Chk1), washed, and reacted with the secondary HRP-conjugated antibody. The intensity of proteins is analyzed by using the ECL kit.

CCCCCCCCCCCCCC[C@@H](O)[C@@H](O)[C@H](CO)NC(C)=O [NAPS, N-acetyl phytosphingosine]
cytotoxicity ([1]; human, 24 h, 30 μM): 86-91%
cell death (TUNEL) (HaCaT cells [2]): most significant effect of cell death
time after treating at which apoptosis is induced (HaCaT cells [2]): 4 h
Cell viability ([3]; human, 24 h, 10 µM): 86 ± 2
cytotoxicity ([3]; human, 24 h, 10 µM): 14%
cytotoxicity (HaCaT cells [4]; no UVB): 33%
time after treatment at which cleavage to active caspase-3 is increased significantly (caspase-3): 30 min
time for which increased active caspase-3 is maintained (caspase-3): 12 h
time to maximum active caspase-3 (caspase-3): ≤ 3 h
maximum increase of active caspase-3 (expression of induction) (caspase-3): 6 folds

tetraacetyl phytosphingosine [TAPS]
Cell viability ([1]; 3.5 μM): 47 ± 8.4
Cell viability ([1]; 7 μM): 22 ± 1.9
Cell viability ([1]; 15 μM): 15 ± 0.7
Cell viability ([1]; 30 μM): 9 ± 0.5
cell death (TUNEL) (HaCaT cells [2]): most significant effect of cell death
time after treating at which apoptosis is induced (HaCaT cells [2]): 4 h
cytotoxicity ([3]; 10 μM combined application with Vit D3): 66%
cytotoxicity ([3]; 10 μM combined application with calcipotriol): 64%
Cell viability ([3]; 10 μM combined with Vit D3 (1 μM), 24 hours, HaCaT, in %): 34 ± 4
Cell viability ([3]; 10 μM combined with calcipotriol (1 μM), 24 hours, HaCaT, in %): 36 ± 8
cytotoxicity ([3]; 10 μM single administration): 24%
Cell viability ([3]; 10 μM singly, 24 hours, HaCaT, in %): 76 ± 2
Cell viability (HaCaT cells [4]; 1 μM + UVB 200 J/m^2, 24 hours): 27 ± 7.1
Cell viability (HaCaT cells [4]; 1 μM, no UVB, 24 hours): 111 ± 7.0
Cell viability (HaCaT cells [4]; 3 μM + UVB 200 J/m^2, 24 hours): 27 ± 3.9
Cell viability (HaCaT cells [4]; 3 μM, no UVB, 24 hours): 97 ± 10.0
Cell viability (HaCaT cells [4]; 5 μM + UVB 200 J/m^2, 24 hours): 16 ± 3.2
Cell viability (HaCaT cells [4]; 5 μM, no UVB, 24 hours): 83 ± 8.0
Cell viability (HaCaT cells [4]; 10 μM + UVB 200 J/m^2, 24 hours): 2 ± 0.1
cytotoxicity (HaCaT cells [4]; no UVB): 57%
Cell viability (HaCaT cells [4]; 10 μM, no UVB, 24 hours): 43 ± 4.0
time for which increased active caspase-3 is maintained (caspase-3): 24 h
time to maximum active caspase-3 (caspase-3): ≤ 3 h
maximum increase of active caspase-3 (expression of induction) (caspase-3): 5 folds
